Source: ChEMBL document CHEMBL5036349, “Development of potent dual PDK1/AurA kinase inhibitors for cancer therapy: Lead-optimization, structural insights, and ADME-Tox profile” (Eur J Med Chem, 2021)
Blank lines part the entries; values can stand above or below the compound they belong to.

Assays:
[1] = target: Aurora kinase B (Homo sapiens) (UniProt Q96GD4); assay: Inhibition of Aurora B kinase (unknown origin) at 10 uM in presence of ATP incubated for 30 min followed by addition of kinase glo-reagent measured after 20 mins by Luminescence based plate reader assay relative to control; details: time 50.0 min
[2] = target: T1, Aurora kinase A (Homo sapiens, UniProt O14965); assay: Inhibition of recombinant full length human His-tagged AURA expressed in Baculovirus expression system in presence of ATP measured by […]
T1 sequence (O14965 whole entry): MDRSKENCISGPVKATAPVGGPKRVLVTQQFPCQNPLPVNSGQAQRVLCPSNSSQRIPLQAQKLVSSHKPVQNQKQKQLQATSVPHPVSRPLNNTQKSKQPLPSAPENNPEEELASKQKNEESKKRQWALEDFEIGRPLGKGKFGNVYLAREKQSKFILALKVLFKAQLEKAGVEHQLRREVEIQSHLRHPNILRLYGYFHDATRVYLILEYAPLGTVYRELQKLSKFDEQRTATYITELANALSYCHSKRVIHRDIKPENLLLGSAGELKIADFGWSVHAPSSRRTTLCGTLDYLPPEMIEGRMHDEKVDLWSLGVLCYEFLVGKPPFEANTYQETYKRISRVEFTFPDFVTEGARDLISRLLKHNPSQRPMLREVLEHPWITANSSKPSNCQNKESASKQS

[3] = target: T2, Protein deacetylase HDAC6 (Homo sapiens) (UniProt Q9UBN7); assay: Inhibition on human recombinant HDAC6 at 10 uM measured after 20 min by luminescence glo assay
T2 sequence (whole entry): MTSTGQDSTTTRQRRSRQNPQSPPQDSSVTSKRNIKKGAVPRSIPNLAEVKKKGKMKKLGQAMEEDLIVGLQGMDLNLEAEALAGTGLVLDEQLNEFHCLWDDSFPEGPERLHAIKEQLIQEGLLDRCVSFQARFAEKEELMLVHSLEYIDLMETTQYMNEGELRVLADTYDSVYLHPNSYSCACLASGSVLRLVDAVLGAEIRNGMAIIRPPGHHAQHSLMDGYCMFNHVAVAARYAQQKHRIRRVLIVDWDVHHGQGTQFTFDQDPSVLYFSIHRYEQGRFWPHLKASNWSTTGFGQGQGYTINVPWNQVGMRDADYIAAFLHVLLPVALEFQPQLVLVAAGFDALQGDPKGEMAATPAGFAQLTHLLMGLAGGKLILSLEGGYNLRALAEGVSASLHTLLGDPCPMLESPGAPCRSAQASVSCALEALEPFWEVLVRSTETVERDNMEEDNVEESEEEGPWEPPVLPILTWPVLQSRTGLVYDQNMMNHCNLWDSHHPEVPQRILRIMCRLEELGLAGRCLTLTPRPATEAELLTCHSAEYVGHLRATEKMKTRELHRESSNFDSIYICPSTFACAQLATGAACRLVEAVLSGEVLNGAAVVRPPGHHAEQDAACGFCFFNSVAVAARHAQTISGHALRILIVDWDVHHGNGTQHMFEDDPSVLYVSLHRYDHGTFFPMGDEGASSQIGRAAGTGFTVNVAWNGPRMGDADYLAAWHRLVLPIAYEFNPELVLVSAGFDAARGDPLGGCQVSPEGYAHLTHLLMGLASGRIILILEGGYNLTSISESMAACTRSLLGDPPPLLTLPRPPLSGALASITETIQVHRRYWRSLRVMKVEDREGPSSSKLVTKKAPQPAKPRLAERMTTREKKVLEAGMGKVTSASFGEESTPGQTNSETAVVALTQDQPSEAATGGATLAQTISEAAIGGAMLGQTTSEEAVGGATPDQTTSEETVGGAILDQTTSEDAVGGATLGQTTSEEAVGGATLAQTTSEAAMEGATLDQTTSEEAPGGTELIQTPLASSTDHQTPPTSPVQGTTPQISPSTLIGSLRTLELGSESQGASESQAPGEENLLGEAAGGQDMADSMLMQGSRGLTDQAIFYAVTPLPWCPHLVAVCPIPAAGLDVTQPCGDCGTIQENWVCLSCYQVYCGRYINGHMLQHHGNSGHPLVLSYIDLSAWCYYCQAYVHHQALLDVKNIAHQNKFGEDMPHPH

[4] = target: T3, Histone deacetylase 8 (Homo sapiens) (UniProt Q9BY41); assay: Inhibition on human recombinant HDAC8 at 10 uM measured after 20 min by luminescence glo assay
T3 sequence (whole entry): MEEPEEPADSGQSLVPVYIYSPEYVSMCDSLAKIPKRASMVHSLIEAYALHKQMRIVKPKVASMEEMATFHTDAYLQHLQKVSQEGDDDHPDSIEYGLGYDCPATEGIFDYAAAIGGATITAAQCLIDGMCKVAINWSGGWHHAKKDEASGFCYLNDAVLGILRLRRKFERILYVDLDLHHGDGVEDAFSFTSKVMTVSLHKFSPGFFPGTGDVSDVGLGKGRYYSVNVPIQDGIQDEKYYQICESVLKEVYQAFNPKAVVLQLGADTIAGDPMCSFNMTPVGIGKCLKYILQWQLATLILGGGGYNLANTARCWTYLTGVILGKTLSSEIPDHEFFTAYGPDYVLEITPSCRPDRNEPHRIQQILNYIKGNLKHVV

[5] = Cytotoxicity against hTERT cells at 10 uM measured after 24 to 48 hrs by Cell-titer glo assay relative to control; type: cell-based; details: human, time 24-48 hrs
[6] = system: HEK293; assay: Cytotoxicity against HEK293 cells at 10 uM measured after 24 to 48 hrs by Cell-titer glo assay relative to control; type: cell-based; details: human, hek293, 10 µM, time 24-48 hrs
[7] = target: Histone deacetylase 9 (Homo sapiens) (UniProt Q9UKV0); assay: Inhibition on human recombinant HDAC9 at 10 uM measured after 20 min by luminescence glo assay
[8] = target: T4, NAD-dependent protein deacetylase sirtuin-7 (Homo sapiens) (UniProt Q9NRC8); assay: Inhibition of human recombinant SIRT7 at 10 uM incubated for 20 mins followed by mixing and measure after 30 mins by Luminescence assay relative to control; details: time 50.0 min
T4 sequence (whole entry): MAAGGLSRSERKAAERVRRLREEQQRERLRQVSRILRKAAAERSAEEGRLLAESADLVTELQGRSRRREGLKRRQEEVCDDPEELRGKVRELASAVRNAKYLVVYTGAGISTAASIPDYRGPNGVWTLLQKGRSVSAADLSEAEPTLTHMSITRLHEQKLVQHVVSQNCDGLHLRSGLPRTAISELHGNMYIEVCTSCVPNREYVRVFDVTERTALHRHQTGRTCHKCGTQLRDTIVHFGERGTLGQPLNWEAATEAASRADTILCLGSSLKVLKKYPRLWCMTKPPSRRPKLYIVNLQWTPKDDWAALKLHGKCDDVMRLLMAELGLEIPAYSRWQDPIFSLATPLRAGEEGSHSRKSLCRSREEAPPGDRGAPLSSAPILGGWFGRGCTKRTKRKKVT

[9] = target: Histone deacetylase 4 (Homo sapiens) (UniProt P56524); assay: Inhibition on human recombinant HDAC4 at 10 uM measured after 20 min by luminescence glo assay
[10] = target: 3',5'-cyclic-AMP phosphodiesterase 4C (Homo sapiens) (UniProt Q08493); assay: Inhibition of PDE4C1 (unknown origin) at 10 uM incubated for 60 mins followed by addition of binding agent and measured after 20 mins by Fluorescence Polarization assay relative to control; details: time 80.0 min
[11] = system: IGROV-1; assay: Cytotoxicity against human IGROV-1 cells measured after 72 hrs by MTT assay; type: functional, cell-based; details: IGROV-1, 72 h
[12] = system: CAKI-1; assay: Cytotoxicity against human CAKI-1 cells measured after 72 hrs by MTT assay; type: functional, cell-based; details: CAKI-1, 72 h
[13] = system: PC-3; assay: Cytotoxicity against human PC-3 cells measured after 72 hrs by MTT assay; type: functional, cell-based; details: PC-3, 72 h
[14] = system: Rec1; assay: Cytotoxicity against human REC1 cells measured after 72 hrs by MTT assay; type: functional, cell-based; details: Rec1, 72 h
[15] = system: NCI-H82; assay: Cytotoxicity against human NCI-H82 cells measured after 72 hrs by MTT assay; type: functional, cell-based; details: NCI-H82, 72 h
[16] = system: NCI-H69; assay: Cytotoxicity against human NCI-H69 cells measured after 72 hrs by MTT assay; type: functional, cell-based; details: NCI-H69, 72 h
[17] = system: A673; assay: Cytotoxicity against human A673 cells measured after 72 hrs by MTT assay; type: functional, cell-based; details: A673, 72 h
[18] = system: MCF7; assay: Cytotoxicity against human MCF7 cells measured after 72 hrs by MTT assay; type: functional, cell-based; details: MCF7, 72 h
[19] = system: TC-32; assay: Cytotoxicity against human TC-32 cells at 30 uM assessed as cell proliferation rate measured after 72 hrs by MTT assay relative to control; type: functional
[20] = system: HCT-116; assay: Cytotoxicity against human HCT-116 cells measured after 72 hrs by MTT assay; type: functional, cell-based; details: HCT-116, 72 h
[21] = Cytotoxicity against human TC71 cells measured after 72 hrs by MTT assay; type: functional, cell-based; details: TC-71, 72 h
[22] = system: SK-N-MC; assay: Cytotoxicity against human SK-N-MC cells measured after 72 hrs by MTT assay; type: functional, cell-based
[23] = Cytotoxicity against human 6647 cells measured after 72 hrs by MTT assay; type: functional, cell-based; details: Homo sapiens, 6647, 72 h
[24] = system: 786-0; assay: Cytotoxicity against human 786-0 cells measured after 72 hrs by MTT assay; type: functional, cell-based; details: 786-0, 72 h
[25] = system: NCI-H69; assay: Cytotoxicity against human NCI-H69 cells at 30 uM assessed as cell proliferation rate measured after 72 hrs by MTT assay relative to control; type: functional
[26] = system: TC-32; assay: Cytotoxicity against human TC-32 cells measured after 72 hrs by MTT assay; type: functional, cell-based; details: TC-32, 72 h
[27] = target: {'v': 'hERG (KCNH2)', 'o': 'p', 'q': 'Inhibition of human ERG at 10 uM'} (Homo sapiens, UniProt Q12809); assay: Inhibition of human ERG at 10 uM relative to control
[28] = target: 3-phosphoinositide-dependent protein kinase 1 (Homo sapiens) (UniProt O15530); assay: Inhibition of recombinant full length human His-tagged PDK1 expressed in Baculovirus expression system in presence of ATP measured by […]

Sequence of Histone deacetylase 4 (Homo sapiens) (P56524 whole entry): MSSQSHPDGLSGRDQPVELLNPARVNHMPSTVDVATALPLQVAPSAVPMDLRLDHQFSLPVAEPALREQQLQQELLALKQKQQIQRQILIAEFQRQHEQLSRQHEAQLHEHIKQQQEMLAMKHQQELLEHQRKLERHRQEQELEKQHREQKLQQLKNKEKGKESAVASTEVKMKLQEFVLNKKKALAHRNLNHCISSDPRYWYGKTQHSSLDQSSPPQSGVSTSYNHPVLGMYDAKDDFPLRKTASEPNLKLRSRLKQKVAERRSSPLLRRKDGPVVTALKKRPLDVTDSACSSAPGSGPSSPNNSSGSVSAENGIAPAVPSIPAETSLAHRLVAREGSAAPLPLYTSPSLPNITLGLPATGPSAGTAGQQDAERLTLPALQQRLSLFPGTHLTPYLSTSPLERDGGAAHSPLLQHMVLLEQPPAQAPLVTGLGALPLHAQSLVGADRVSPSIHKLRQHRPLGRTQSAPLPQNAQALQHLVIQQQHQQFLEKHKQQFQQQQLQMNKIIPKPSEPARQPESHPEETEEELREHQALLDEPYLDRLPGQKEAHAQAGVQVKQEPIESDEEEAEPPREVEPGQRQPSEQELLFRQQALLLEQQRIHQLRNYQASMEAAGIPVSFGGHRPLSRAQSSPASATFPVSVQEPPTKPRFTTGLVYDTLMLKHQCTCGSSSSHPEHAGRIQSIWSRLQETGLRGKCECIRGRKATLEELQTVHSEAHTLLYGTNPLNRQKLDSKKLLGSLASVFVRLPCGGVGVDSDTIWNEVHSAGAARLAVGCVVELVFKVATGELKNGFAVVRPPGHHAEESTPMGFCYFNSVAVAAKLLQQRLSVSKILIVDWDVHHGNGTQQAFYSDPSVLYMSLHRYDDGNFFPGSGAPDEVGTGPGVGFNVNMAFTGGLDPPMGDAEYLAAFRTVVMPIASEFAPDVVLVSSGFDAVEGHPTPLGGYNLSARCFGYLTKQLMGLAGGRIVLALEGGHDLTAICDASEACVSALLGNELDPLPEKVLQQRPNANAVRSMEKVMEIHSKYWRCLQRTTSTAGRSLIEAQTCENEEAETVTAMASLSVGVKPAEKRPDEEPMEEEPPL
Sequence of Histone deacetylase 9 (Homo sapiens) (Q9UKV0 whole entry): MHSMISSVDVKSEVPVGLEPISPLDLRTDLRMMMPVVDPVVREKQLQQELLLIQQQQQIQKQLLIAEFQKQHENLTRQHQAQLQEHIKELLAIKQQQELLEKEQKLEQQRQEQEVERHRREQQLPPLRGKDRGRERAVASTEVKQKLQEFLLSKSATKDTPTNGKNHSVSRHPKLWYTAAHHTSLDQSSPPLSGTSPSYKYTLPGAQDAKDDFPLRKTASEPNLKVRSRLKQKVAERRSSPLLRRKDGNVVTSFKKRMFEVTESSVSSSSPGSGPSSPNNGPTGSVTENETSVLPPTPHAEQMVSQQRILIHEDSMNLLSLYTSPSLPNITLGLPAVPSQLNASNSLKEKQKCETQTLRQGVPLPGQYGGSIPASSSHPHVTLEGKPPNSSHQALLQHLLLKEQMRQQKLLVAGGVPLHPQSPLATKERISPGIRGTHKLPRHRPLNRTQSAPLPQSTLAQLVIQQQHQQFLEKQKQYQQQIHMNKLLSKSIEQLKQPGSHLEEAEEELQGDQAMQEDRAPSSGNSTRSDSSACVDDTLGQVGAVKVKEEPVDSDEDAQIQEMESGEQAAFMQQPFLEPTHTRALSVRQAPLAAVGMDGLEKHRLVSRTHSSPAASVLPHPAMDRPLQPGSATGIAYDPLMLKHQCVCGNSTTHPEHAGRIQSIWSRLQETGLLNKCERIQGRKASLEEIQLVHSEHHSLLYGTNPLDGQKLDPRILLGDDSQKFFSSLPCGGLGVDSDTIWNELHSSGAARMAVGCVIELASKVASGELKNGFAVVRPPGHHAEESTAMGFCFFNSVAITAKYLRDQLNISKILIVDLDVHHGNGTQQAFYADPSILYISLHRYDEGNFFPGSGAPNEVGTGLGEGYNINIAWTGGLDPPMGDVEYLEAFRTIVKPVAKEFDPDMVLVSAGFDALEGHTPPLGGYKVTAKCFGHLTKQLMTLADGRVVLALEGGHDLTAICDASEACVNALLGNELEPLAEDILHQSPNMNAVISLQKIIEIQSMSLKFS
Sequence of Aurora kinase B (Homo sapiens) (Q96GD4 whole entry): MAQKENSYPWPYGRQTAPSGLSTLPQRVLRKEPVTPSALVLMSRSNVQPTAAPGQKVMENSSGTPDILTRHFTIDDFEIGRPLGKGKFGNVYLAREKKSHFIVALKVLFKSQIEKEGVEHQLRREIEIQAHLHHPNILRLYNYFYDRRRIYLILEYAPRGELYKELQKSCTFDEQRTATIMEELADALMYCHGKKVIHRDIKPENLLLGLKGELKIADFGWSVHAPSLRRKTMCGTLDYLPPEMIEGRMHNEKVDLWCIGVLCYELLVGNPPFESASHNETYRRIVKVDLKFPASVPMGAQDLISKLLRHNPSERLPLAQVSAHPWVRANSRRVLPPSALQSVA
Sequence of 3',5'-cyclic-AMP phosphodiesterase 4C (Homo sapiens) (Q08493 whole entry): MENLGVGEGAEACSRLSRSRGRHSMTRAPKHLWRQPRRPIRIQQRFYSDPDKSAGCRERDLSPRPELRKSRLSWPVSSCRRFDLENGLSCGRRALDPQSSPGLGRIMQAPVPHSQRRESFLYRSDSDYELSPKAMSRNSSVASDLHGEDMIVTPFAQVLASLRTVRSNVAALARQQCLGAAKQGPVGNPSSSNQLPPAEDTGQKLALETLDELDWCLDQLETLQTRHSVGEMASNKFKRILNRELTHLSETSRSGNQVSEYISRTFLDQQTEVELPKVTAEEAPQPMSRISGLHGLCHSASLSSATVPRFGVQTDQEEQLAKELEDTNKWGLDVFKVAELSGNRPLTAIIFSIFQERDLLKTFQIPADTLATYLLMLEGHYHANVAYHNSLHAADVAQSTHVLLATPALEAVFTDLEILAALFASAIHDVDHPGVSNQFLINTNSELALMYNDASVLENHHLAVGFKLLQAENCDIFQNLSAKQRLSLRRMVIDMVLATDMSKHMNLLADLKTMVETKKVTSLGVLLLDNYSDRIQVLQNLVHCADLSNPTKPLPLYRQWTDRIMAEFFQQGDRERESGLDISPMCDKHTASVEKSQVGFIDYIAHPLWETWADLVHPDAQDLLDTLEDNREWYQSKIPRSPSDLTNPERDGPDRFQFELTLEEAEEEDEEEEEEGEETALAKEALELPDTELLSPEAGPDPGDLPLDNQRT
Sequence of {'v': 'hERG (KCNH2)', 'o': 'p', 'q': 'Inhibition of human ERG at 10 uM'} (Q12809 whole entry): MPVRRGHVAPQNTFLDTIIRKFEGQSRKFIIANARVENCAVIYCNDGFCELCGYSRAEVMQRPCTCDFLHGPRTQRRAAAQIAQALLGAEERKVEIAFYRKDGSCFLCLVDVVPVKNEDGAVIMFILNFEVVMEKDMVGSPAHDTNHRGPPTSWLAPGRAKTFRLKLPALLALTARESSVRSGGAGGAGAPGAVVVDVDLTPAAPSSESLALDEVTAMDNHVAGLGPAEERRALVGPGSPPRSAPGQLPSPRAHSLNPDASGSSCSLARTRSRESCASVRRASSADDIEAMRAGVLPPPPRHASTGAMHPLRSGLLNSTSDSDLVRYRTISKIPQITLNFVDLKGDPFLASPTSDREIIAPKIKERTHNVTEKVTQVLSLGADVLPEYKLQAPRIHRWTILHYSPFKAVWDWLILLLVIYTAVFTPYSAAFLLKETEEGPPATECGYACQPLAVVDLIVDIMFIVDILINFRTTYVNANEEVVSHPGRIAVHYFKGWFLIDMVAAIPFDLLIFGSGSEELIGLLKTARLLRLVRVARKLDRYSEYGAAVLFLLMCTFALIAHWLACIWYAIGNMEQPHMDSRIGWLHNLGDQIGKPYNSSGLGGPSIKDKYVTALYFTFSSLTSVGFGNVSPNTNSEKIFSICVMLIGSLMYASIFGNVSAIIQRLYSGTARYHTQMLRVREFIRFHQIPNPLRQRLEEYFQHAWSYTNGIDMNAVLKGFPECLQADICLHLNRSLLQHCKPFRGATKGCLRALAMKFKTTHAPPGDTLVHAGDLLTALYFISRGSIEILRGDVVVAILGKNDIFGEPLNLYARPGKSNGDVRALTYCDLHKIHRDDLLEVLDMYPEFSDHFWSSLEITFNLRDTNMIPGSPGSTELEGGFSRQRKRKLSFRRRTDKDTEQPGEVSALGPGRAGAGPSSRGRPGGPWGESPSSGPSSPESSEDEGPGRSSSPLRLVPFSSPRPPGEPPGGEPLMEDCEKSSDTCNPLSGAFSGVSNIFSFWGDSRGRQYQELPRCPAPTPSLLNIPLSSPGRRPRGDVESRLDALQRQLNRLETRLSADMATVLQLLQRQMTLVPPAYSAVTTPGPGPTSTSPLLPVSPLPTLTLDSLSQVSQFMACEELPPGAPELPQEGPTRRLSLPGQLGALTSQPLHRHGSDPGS

- inhibition [1]: < 20%
- IC50 ([2]; read-out: IC50): > 10 µM
- inhibition [3]: < 30%
- inhibition [4]: < 30%
- inhibition [7]: < 30%
- inhibition [8]: < 30%
- inhibition [9]: < 30%
- inhibition [10]: < 30%
SMILES: O=C1Nc2ccc(NC(=O)c3cccc(NC(=O)c4cccn(Cc5ccc(F)c(F)c5)c4=O)c3)cc2/C1=C/c1cnc[nH]1
- Activity [5]: < 25%
- Activity [6]: < 25%

- inhibition [1]: < 20%
- inhibition [3]: < 30%
- inhibition [4]: < 30%
- inhibition [7]: < 30%
- inhibition [8]: < 30%
- inhibition [9]: < 30%
- inhibition [10]: < 30%
SMILES: O=C(CCCNC(=O)c1cccn(Cc2ccc(F)c(F)c2)c1=O)Nc1ccc2c(c1)/C(=C/c1cnc[nH]1)C(=O)N2
- inhibition at 10 µM [27]: 53%
- Activity [5]: < 25%
- Activity [6]: < 25%

- IC50 [2]: Not Active
- IC50 [28]: Not Active
SMILES: O=C(CCNC(=O)c1cccn(Cc2ccc(F)c(F)c2)c1=O)Nc1ccc2c(c1)/C(=C\c1ccc(F)cc1)C(=O)N2

- IC50 [2]: Not Active
- IC50 [28]: Not Active
SMILES: O=C1Nc2ccc(NC(=O)c3cccc(NC(=O)c4cccn(Cc5ccc(F)c(F)c5)c4=O)c3)cc2C1=Cc1cccs1

Further lines, the compound ahead of its results:

SMILES: O=C(N[C@@H](COc1ccc2[nH]c(=O)[nH]c2c1)c1ccccc1)c1cccn(Cc2ccc(F)c(F)c2)c1=O
- IC50 [11]: > 30 µM
- IC50 [12]: > 30 µM
- IC50 [13]: > 30 µM
- IC50 [14]: > 30 µM
- IC50 [15]: > 30 µM
- IC50 [16]: 13.9 µM
- IC50 [17]: > 30 µM
- IC50 [18]: > 30 µM
- Emax at 30 µM [19]: 80%
- IC50 [20]: > 30 µM
- IC50 [21]: > 30 µM
- IC50 [22]: > 30 µM
- IC50 [23]: > 30 µM
- IC50 [24]: > 30 µM
- Emax at 30 µM [25]: 80%
- IC50 [26]: 13.9 µM

SMILES: O=C(CCNC(=O)c1cccn(Cc2ccc(F)c(F)c2)c1=O)Nc1ccc2c(c1)C(=Cc1cccs1)C(=O)N2
- IC50 [2]: Not Active

SMILES: O=C(CCCNC(=O)c1cccn(Cc2ccc(F)c(F)c2)c1=O)Nc1ccc2c(c1)C(=Cc1cccs1)C(=O)N2
- IC50 [2]: Not Active

SMILES: CCN(C)CC(=O)c1c[nH]c2ccc(NC(=O)[C@H](NC(=O)c3cccn(Cc4ccc(F)c(F)c4)c3=O)c3ccccc3)cc12
- IC50 [2]: Not Active
- IC50 [28]: Not Active

SMILES: O=C(CCNC(=O)c1cccn(Cc2ccc(F)c(F)c2)c1=O)Nc1ccc2c(c1)/C(=C/c1ncc[nH]1)C(=O)N2
- IC50 [2]: Not Active

SMILES: CN1CCN(CC(=O)c2c[nH]c3ccc(NC(=O)[C@H](NC(=O)c4cccn(Cc5ccc(F)c(F)c5)c4=O)c4ccccc4)cc23)CC1
- IC50 [2]: Not Active
- IC50 [28]: Not Active

SMILES: Cc1c(Br)cc(C(=O)NCC(=O)Nc2ccc3c(c2)/C(=C/c2cnc[nH]2)C(=O)N3)c(=O)n1Cc1ccc(F)c(F)c1
- inhibition [1]: < 20%
- IC50 ([2]; read-out: IC50): > 10 µM
- inhibition [3]: < 30%
- inhibition [4]: < 30%
- Activity [5]: < 25%
- Activity [6]: < 25%
- inhibition [7]: < 30%
- inhibition [8]: < 30%
- inhibition [9]: < 30%
- inhibition [10]: < 30%
